From US7432342B2, “Kinase anchor protein muteins, peptides thereof and related documents” (Sequenom, Inc., priority 2002, dated 2008)
Peptide text beside a SMILES is read from it. * marks the point of attachment. X1 = CN(C)c1ccc2c(c1)Oc1cc(N(C)C)ccc1C21OC(=O)c2cc(N3C(=O)CC(*)C3=O)ccc21

Tests used:
GFP-RIIα = target: T1, GFP-RIIα (Mus musculus, UniProt P12367); assay: Co-localization with mitochondria-targeted Flag-tagged AKB domain constructs in 10T(1/2) cells (Example 10); type: cell-based; details: mutations of Table 7 in AKB domain of C-terminal 156 residues of mouse D-AKAP2, mitochondria-targeted
T1 construct: Full-length bovine RIα and mouse RIIα were fused with green fluorescent protein (GFP) by subcloning into pEGFPN1; expressed in transfected cells; host or cells: 10T(1/2) cells
T1 sequence (P12367 whole entry, the tested form may be a part): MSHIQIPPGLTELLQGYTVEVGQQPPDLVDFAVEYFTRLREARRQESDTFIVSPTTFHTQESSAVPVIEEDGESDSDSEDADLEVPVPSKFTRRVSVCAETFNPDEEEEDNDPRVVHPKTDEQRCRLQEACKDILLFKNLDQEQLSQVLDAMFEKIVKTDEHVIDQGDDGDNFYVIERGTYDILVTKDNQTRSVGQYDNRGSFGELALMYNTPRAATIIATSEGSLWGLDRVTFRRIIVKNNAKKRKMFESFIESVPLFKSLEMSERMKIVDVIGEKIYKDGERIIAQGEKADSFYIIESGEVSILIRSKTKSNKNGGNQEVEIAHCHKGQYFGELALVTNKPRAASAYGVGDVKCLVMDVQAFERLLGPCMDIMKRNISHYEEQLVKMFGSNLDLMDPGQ
Protocol: (§1) To test the ability of the mutations set forth in Table 7 [AKB(dual), AKB(RI), AKB(RII) and AKB(null)] to co-localize with selected PKA isoforms in cells, a flag-tagged AKB domain construct targeted to the mitochondria was prepared using the AKB domain and a mitochondria targeting sequence from D-AKAP1 as set forth in Example 3. The respective mutations were then incorporated into the AKB domain of D-AKAP2 to test for selectivity in the cell. The targeting constructs of the AKB domain were made by fusing the C-terminal 156 residues of mouse D-AKAP2 with the N-terminal mitochondrial-targeting domain of D-AKAP1 (residues 1-30 of D-AKAP1a). After adding a flag tag to the C-terminus, the constructs were sub-cloned into the pCI vector (Promega, Madison, Wis.). The mutations of the AKB domain corresponding to those set forth in Table 7 herein were made with the QuickChange mutagenesis method (Makarova et al. (2000) Biotechniques, 29:970-972). Full-length bovine RIα and mouse RIIα were fused with green fluorescent protein (GFP) by subcloning into pEGFPN1 (Clontech, Palo Alto, Calif.). Equal amounts of the targeting constructs and either GFP-RIα or GFP-RIIα constructs were co-transfected into 10T(1/2) cells using Lipofectamin (Invitrogen, Carlsbad, Calif.). The AKB domain was detected by immuno-staining with monoclonal antibodies against the Flag-tag (Kodak, Rochester, N.Y.) followed by a rhodamine-conjugated secondary antibody (Jackson Lab, Bar Harbor, Me.). The cells were imaged using a radiance confocal microscope (BioRad, Hercules, Calif.).

GFP-RIα = target: T2, GFP-RIα (Bos taurus, UniProt P00514); assay: as above; type: cell-based, bovine; details: mutations of Table 7 in AKB domain of C-terminal 156 residues of mouse D-AKAP2, mitochondria-targeted
T2 construct: Full-length bovine RIα and mouse RIIα were fused with green fluorescent protein (GFP) by subcloning into pEGFPN1; expressed in transfected cells; host or cells: 10T(1/2) cells
T2 sequence (P00514 whole entry, the tested form may be a part): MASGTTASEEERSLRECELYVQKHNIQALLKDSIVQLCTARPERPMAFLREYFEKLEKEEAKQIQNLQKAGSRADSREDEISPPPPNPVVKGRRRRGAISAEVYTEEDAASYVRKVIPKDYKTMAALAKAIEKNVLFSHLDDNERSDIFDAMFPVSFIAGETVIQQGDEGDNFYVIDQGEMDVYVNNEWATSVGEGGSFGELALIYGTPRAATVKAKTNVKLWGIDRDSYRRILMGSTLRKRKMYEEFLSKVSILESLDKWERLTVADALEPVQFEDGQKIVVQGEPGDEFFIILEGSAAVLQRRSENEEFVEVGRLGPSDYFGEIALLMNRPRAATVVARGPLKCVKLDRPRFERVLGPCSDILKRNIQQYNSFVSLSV
Protocol: as §1

CC[C@H](C)[C@H](NC(=O)[C@H](CCCCN)NC(=O)[C@H](Cc1c[nH]c2ccccc12)NC(=O)[C@H](C)NC(=O)[C@H](CC(C)C)NC(=O)[C@H](CCC(=O)O)NC(=O)[C@H](CCC(=O)O)NC(=O)[C@H](CCC(N)=O)NC(=O)[C@H](C)NC(=O)[C@H](CCC(=O)O)NC(=O)[C@H](CC(=O)O)NC(=O)[C@@H](NC(=O)[C@H](CC(N)=O)NC(=O)CNC(=O)[C@H](CCC(N)=O)NC(=O)[C@@H](N)C(C)C)[C@@H](C)O)C(=O)N[C@@H](C)C(=O)N[C@@H](CCCCN)C(=O)N[C@@H](CCSC)C(=O)N[C@H](C(=O)N[C@H](C(=O)N[C@@H](CO)C(=O)N[C@@H](CC(=O)O)C(=O)N[C@H](C(=O)N[C@@H](CCSC)C(=O)N[C@@H](CCC(N)=O)C(=O)N[C@@H](CCC(N)=O)C(=O)N[C@@H](CSC1CC(=O)N(c2ccc3c(c2)C(=O)OC32c3ccc(N(C)C)cc3Oc3cc(N(C)C)ccc32)C1=O)C(N)=O)C(C)C)C(C)C)[C@@H](C)CC (some centres unmarked) [AKB (dual)] (H-VQGNTDEAQEELAWKIAKMIVSDVMQQC(X1)-NH2; N-terminus assumed)
recruitment of GFP-RIIα to the mitochondria (GFP-RIIα): able to recruit both GFP-RIα and GFP-RIIα to the mitochondria | recruitment of GFP-RIα to the mitochondria (GFP-RIα): able to recruit both GFP-RIα and GFP-RIIα to the mitochondria
